Article PMC11175440, “Exploring hydrophilic 2,2-di(indol-3-yl)ethanamine derivatives against Leishmania infantum” (PLOS ONE, 2024)
pIC50: −log10 of the molar value. Where “and” joins values, the source holds several entries; their conditions need not be identical. Equal entries are not always repeated. Entries after “also recorded” stand apart in the source; their conditions may differ.

How the values were obtained:
[1] = test system: THP-1, DH82, HepG2, HaCaT and HPF cells; set-up: method as in PMID 34984300; conditions: cited from earlier work
[2] = test system: L. infantum MHOM/TN/80/IPT1 promastigotes; set-up: method as in PMID 34984300; conditions: read-out: IC50 against L. infantum promastigotes; cited from earlier work
[3] = test system: THP-1 cells; set-up: method as in PMID 34984300; conditions: cited from earlier work
[4] = test system: L. infantum intracellular amastigotes; set-up: method as in PMID 34984300; conditions: compared with pentamidine; cited from earlier work
[5] = test system: L. infantum (MHOM/MA/67/ITMAP-263) axenic amastigotes; assay: In vivo anti-amastigote activity in BALB/c mice infection model (limiting dilution parasite burden); conditions: spleen, liver, bone marrow; URB1483 5 mg/kg/day IP in 60% PEG 400, 10 days; 5 mg/kg/day
Method: The compound URB1483 was selected for the in vivo evaluation on a BALB/c mice infection model. Six- to seven-week-old BALB/c mice were purchased from Charles River Laboratories (Barcelona, Spain) or the I3S (Porto, Portugal) animal facility. Luciferase-expressing L. infantum (MHOM/MA/67/ITMAP-263) axenic amastigotes were cultured in complete cell-free medium MAA/20 [20] at 37°C with 5% CO2. Five-day-old cultures of amastigotes were washed twice with PBS and resuspended at a concentration of 1×10^9 parasites/Ml. A total of 17 mice were infected with 100 μL of parasite suspension containing 1×10^8 parasites. The injection was performed intra-venously (IV) in the tails of mice, and treatments started 21 days post-infection for 10 consecutive days. Formulation studies are reported in the Supporting Information (S1 Table in S1 File). […]
Mice well-being-assessment was checked every two days, in terms of weight control and the presence of stress signs. […] Spleen and liver were weighted, and bone marrow cells were counted with automatic cell counter EVE^TM (NanoEnTek, Seul, Korea). […] For bone marrow, the number of parasites was calculated per 10^5 cells using the formula: [(geometric mean of reciprocal titer from each triplicate/number of cells) × reciprocal fraction of the cells inoculated into the first well]. […]

[6] = Formulation (solubility and stability) study of URB1483; assay type: physicochemical; conditions: for Solubility: 48-72 h at 37 °C
Method: Equivalence calculation between URB1483 concentration and injectable dose (mg/kg) […]
Considering an average mice weight of 25 g and an IP injectable volume of 100 μL, the following […]
correspondence can be considered:
[URB1483](mg/mL) = Dose (mg/kg) ∙ 0.025 (kg)
[URB1483](mM) = Dose (mg/kg) ∙0.025 (kg)
General procedure for the formulation study
To the indicated volume of the URB1483 stock solution in DMSO (25.0 mg/mL , 50.24 mM) were […]
added the appropriate volume or weight of excipient and the resulting mixture was heated at 37 °C […]
and sonicated for 10-20 min. Finally, distilled water was added to reach the final volume of 1 mL […]
(Table S1). The resulting formulation was ma intained at 37 °C under stirring for 48-72 h. At regular […]
time points, aliquots of the described formulations were sampled, centrifuged (8000 rpm, 10 min), […]
and two volumes of acetonitrile were added. After further centrifugation (8000 rpm, 10 min), the […]
resulted clear samples were analyzed by HPLC -ESI-MS for a percentage of the remaining compound.
URB1483 was considered soluble and stable in the formulation with more than 90% of the compoun d […]
Table S1 – Preliminary Formulation Study on URB1483[a]
Entry Final Dose Stock Solution URB1483 Volume Excipient Solubility[b]
2[c] 1 mg/kg 5 μL DMSO (95 μL) 🗶
3[c] 1 mg/kg 5 μL DMSO (195 μL) ✓
[a] DMSO = dimethylsulfoxide; PG = propylene glycol; PEG = polyethylene glycol; HPBC = 2-hydropropyl- […]
β-cyclodextrin. [b] URB1483 was considered soluble and stable with more than 90% of the compound […]
remaining unaltered after 48-72 h at 37 °C, by HPLC-ESI-MS analysis. [c] Instead of water, a physiological […]
solution (saline) was utilized.

CCOC(=O)c1c(C(=O)OC)cn(CC(c2cn(C)c3ccccc23)c2cn(C)c3ccccc23)c1C [URB1483]
toxicity on mammalian cell lines [1]: did not affect the viability; also recorded: No toxicity
pIC50 [2]: 5.43 and 5.40
CC50 [3]: > 200 µM
selectivity index (SI) [3]: greater than 55
efficacy on in vitro infection model [4]: comparable to that of the commercial drug pentamidine
effect on parasite burden (in vivo efficacy) [5]: did not significantly reduce parasite burden; also recorded: No in vivo efficacy; also recorded: could not reduce parasite burden; also recorded: ineffective
water solubility [6]: Poorly soluble in water; also recorded: very poor water solubility; also recorded: poor water solubility
maximum injectable concentration ([6]; 60% PEG 400 in water, 1.25 mg/mL, mouse weight 25 g, injection volume 100 μL): 5 mg/kg
Solubility ([6]; entry 3: final dose 1 mg/kg, DMSO (195 μL), saline): ✓ (URB1483 was considered soluble and stable with more than 90% of the compound remaining unaltered after 48-72 h at 37 °C, by HPLC-ESI-MS analysis)
Solubility ([6]; entry 6: final dose 1 mg/kg, PG (600 mg), water): ✓ (URB1483 was considered soluble and stable with more than 90% of the compound remaining unaltered after 48-72 h at 37 °C, by HPLC-ESI-MS analysis)
Solubility ([6]; entry 9: final dose 1 mg/kg, PEG 400 (400 mg), water): ✓ (URB1483 was considered soluble and stable with more than 90% of the compound remaining unaltered after 48-72 h at 37 °C, by HPLC-ESI-MS analysis)
Solubility ([6]; entry 11: final dose 1 mg/kg, PEG 400 (500 mg), water): ✓ (URB1483 was considered soluble and stable with more than 90% of the compound remaining unaltered after 48-72 h at 37 °C, by HPLC-ESI-MS analysis)
Solubility ([6]; entry 12: final dose 2 mg/kg, PEG 400 (500 mg), water): ✓ (URB1483 was considered soluble and stable with more than 90% of the compound remaining unaltered after 48-72 h at 37 °C, by HPLC-ESI-MS analysis)
Solubility ([6]; entry 14: final dose 1 mg/kg, PEG 400 (600 mg), water): ✓ (URB1483 was considered soluble and stable with more than 90% of the compound remaining unaltered after 48-72 h at 37 °C, by HPLC-ESI-MS analysis)
Solubility ([6]; entry 15: final dose 2 mg/kg, PEG 400 (600 mg), water): ✓ (URB1483 was considered soluble and stable with more than 90% of the compound remaining unaltered after 48-72 h at 37 °C, by HPLC-ESI-MS analysis)
Solubility ([6]; entry 16: final dose 5 mg/kg, PEG 400 (600 mg), water): ✓ (URB1483 was considered soluble and stable with more than 90% of the compound remaining unaltered after 48-72 h at 37 °C, by HPLC-ESI-MS analysis)
Solubility ([6]; entry 19: final dose 1 mg/kg, HPBC (400 mg), water): ✓ (URB1483 was considered soluble and stable with more than 90% of the compound remaining unaltered after 48-72 h at 37 °C, by HPLC-ESI-MS analysis)
